Results on six molecules are retold here after US4792614A, “Substituted furans as inhibitors of 3-hydroxy-3-methylglutaryl-coa reductase” (American Home Products Corporation, priority 1987, dated 1988).

The target of the first assay is T1, HMG--CoA reductase (Rattus norvegicus, UniProt P51639).
T1 construct: the microsomal fraction is isolated by differential ultracentrifugation to obtain HMG--CoA reductase enzyme; from tissue; host or cells: rat liver, microsomal fraction
T1 sequence (P51639 1-887): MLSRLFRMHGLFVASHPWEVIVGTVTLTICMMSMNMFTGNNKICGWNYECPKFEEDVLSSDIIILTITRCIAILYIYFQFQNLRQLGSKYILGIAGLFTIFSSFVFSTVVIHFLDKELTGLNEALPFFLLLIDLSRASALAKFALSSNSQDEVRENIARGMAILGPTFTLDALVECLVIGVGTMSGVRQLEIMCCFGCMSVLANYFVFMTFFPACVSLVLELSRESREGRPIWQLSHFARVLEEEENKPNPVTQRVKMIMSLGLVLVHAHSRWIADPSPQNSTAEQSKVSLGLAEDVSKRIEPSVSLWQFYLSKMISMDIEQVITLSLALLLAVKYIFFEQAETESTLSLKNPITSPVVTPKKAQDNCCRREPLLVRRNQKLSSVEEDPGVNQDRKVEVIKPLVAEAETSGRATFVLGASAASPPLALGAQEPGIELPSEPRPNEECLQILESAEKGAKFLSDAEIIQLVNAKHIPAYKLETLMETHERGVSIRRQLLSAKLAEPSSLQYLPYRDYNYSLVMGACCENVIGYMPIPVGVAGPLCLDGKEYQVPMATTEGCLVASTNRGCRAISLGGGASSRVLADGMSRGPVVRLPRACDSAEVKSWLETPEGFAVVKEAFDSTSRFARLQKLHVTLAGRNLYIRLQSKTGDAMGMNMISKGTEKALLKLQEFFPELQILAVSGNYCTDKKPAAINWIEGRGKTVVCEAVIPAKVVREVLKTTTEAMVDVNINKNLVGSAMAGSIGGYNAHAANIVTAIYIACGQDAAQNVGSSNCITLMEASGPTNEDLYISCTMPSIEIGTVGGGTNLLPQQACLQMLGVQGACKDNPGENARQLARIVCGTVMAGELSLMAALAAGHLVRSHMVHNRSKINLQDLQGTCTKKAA
Kind of assay: Inhibition of HMG-CoA reductase (microsomal enzyme from rat liver, [14C] HMG-CoA reduction to mevalonolactone). It counts as biochemical. The conditions noted are these: rat liver microsomal fraction; compound tested as the dihydroxy sodium carboxylate, 10^-3 to 10^-6 M; 20 minute incubation at 37° C. An excerpt:
The HMG--CoA reductase inhibitory properties of representative compounds of this invention were established by subjecting the compounds to the following standard experimental test procedure adapted from Rodwell et al., Adv. Lipid Res. 14 1, 1976; Endo et al., FEBS Letters 72 323, 1976; and Tanzawa et al., Biochemia et Biophysica Acta 488 97, 1977.
Rat livers obtained from rats fed on a diet containing 3% cholestyramine and maintained on a reverse lighting regimen for three weeks are homogenized and the microsomal fraction is isolated by differential ultracentrifugation to obtain HMG--CoA reductase enzyme. To a preincubated (five minutes at 37° C.) solution of the compound being tested (as the dihydroxy sodium carboxylate in amounts from 10^-3 to 10^-6 M) in TEDKS100 pH (Tris®40 mM; EDTA 1 mM; dithiothreitol 5 mM; KCl 70 mM; sucrose 100 mM), 7.5 buffer or DMSO dissolved in an assay medium containing 20 μl of 2.5M KCl; 20 μl NADPH (reduced nicotinamide adenine dinucleotide phosphate) (7.5 mM); and 40 μl of labeled (RS) HMG--CoA (3--^14 C; […]; 200 μM) is added 10 μl of preincubated (five minutes at 37° C.) microsomal fraction to obtain a total volume of 125 μl. After a twenty minute incubation period at 37° C., reaction of the enzyme is terminated by addition of 10 μl of 70% HClO4. The assay tubes are then centrifuged for two minutes in a Beckman microfuge II.
To 100 μl of the supernatant liquid is added 10 μl of non-radioactivemevalonic acid lactone (0.25M in 8 mM H2 SO4). An aliquot of the sample is eluted with 8 mM H2 SO4 through Bio Rad Aminex HPX-87H (HPLC; Hewlett-Packard Model 1084B) at a flow rate of 1 mL/minute. The effluent is fractionated, Hydrofluor® is added and radioactivity of the [^14 C] mevalonolactone produced by reduction of [^14 C] HMG--CoA determined with a scintillation counter.
The percent inhibition of HMG--CoA reductase activity is obtained by comparison with a control assay devoid of the test compound. The inhibitory concentration (IC50) is calculated for the various test compounds.
(In general: Microsomes from liver hold many membrane-bound enzymes, among them those of drug oxidation.)
As for `COC(=O)C[C@@H](O)C[C@H](O)/C=C/c1oc(C)cc1-c1ccc(F)cc1` [Example 1, (3S,5S,E)-7-[5-Methyl-3-(4-Fluorophenyl)-2-Furanyl]-3,5-Dihydroxy-6-Heptenoic Acid Methyl Ester], the IC50 – broadly, the concentration at which inhibition is half-maximal – was 62 µM.

The molecule `COC(=O)C[C@@H](O)C[C@H](O)/C=C/c1occc1-c1ccc(F)cc1` [Example 3, (3S,5S,E)-7-[3-(4-Fluorophenyl)-2-Furanyl]-3,5-Dihydroxy-6-Heptenoic Acid Methyl Ester] returned an IC50 of 56 µM.

Molecule `COC(=O)C[C@@H](O)C[C@H](O)/C=C/c1oc(C)cc1-c1ccccc1` [Example 2, (3S,5S,E)-7-[5-Methyl-3-Phenyl-2-Furanyl]-3,5-Dihydroxy-6-Heptenoic Acid Methyl Ester] came in with an IC50 of 99 µM.

`COC(=O)C[C@@H](O)C[C@H](O)/C=C/c1ccc(-c2ccc(C(F)(F)F)cc2[N+](=O)[O-])o1` [Example 4, (3S,5S,E)-3,5-Dihydroxy-7-[5-[4-(Trifluoromethyl)-2-Nitrophenyl]-2-Furanyl]-6-Heptenoic Acid Methyl Ester]: the IC50 amounted to 100 µM.

Another assay deals with biosynthesis of cholesterol.
Test: not given
The conditions noted are these: background art; cited from earlier work.
For the molecule `CCC(C)C(=O)OC1CC(C)C=C2C=CC(C)C(CCC3CC(O)CC(=O)O3)C21` (stereo not drawn) [mevinolin], the “inhibition of the biosynthesis of cholesterol (in words)” value is “more effectively”.

In the case of `CC[C@H](C)C(=O)O[C@H]1CCC=C2C=C[C@H](C)[C@H](CC[C@@H]3C[C@@H](O)CC(=O)O3)[C@H]21` [compactin], the “inhibition of the biosynthesis of cholesterol (in words)” value is “inhibited”.
